Assays:
Type in all cases: functional
[1] = Induction of c-Fos expression in C57BL/6 mouse assessed as cFos cell count in brain at 0.3 mg/kg by immunohistochemistry (reference value: 267)
[2] = Induction of c-Fos expression in C57BL/6 mouse assessed as cFos cell count in brain at 0.01 mg/kg by immunohistochemistry (reference value: 267)
[3] = Induction of c-Fos expression in C57BL/6 mouse assessed as cFos cell count in brain at 0.3 mg/kg for 2 hrs by immunohistochemistry (reference value: 413.7)
[4] = Induction of c-Fos expression in C57BL/6 mouse assessed as cFos cell count in brain at 0.1 mg/kg for 5 days by immunohistochemistry (reference value: 352 to 450); conditions: time 5 day
[5] = Induction of c-Fos expression in C57BL/6 mouse assessed as cFos cell count in brain at 0.1 mg/kg for 10 days by immunohistochemistry (reference value: 450); conditions: time 10 day
[6] = Induction of c-Fos expression in C57BL/6 mouse assessed as cFos cell count in brain at 3 mg/kg for 1 hr by immunohistochemistry (reference value: 413.7)
[7] = Induction of c-Fos expression in C57BL/6 mouse assessed as cFos cell count in brain at 0.1 mg/kg for 1 hr by immunohistochemistry (reference value: 413.7)
[8] = Induction of c-Fos expression in C57BL/6 mouse assessed as cFos cell count in brain at 1 mg/kg by immunohistochemistry (reference value: 267)
[9] = Induction of c-Fos expression in C57BL/6 mouse assessed as cFos cell count in brain at 0.1 mg/kg by immunohistochemistry (reference value: 267)
[10] = Induction of c-Fos expression in C57BL/6 mouse assessed as cFos cell count in brain at 0.3 mg/kg for 4 hrs by immunohistochemistry (reference value: 413.7)
[11] = Induction of c-Fos expression in C57BL/6 mouse assessed as cFos cell count in brain at 0.1 mg/kg for 1 days by immunohistochemistry (reference value: 352); conditions: time 1 day
[12] = Induction of c-Fos expression in C57BL/6 mouse assessed as cFos cell count in brain at 0.03 mg/kg by immunohistochemistry (reference value: 267)
[13] = Induction of c-Fos expression in C57BL/6 mouse assessed as cFos cell count in brain at 0.3 mg/kg for 1 hr by immunohistochemistry (reference value: 413.7)
[14] = Induction of c-Fos expression in C57BL/6 mouse assessed as cFos cell count in brain at 0.03 mg/kg for 1 hr by immunohistochemistry (reference value: 470)
[15] = Induction of c-Fos expression in C57BL/6 mouse assessed as cFos cell count in brain at 0.3 mg/kg for 1 hr by immunohistochemistry (reference value: 470)
[16] = Induction of c-Fos expression in C57BL/6 mouse assessed as cFos cell count in brain at 0.1 mg/kg for 1 hr by immunohistochemistry (reference value: 470)
[17] = Induction of c-Fos expression in C57BL/6 mouse assessed as cFos cell count in brain at 0.3 mg/kg for 4 hrs by immunohistochemistry (reference value: 470)
[18] = Induction of c-Fos expression in C57BL/6 mouse assessed as cFos cell count in brain at 0.3 mg/kg for 2 hrs by immunohistochemistry (reference value: 470)
[19] = Induction of c-Fos expression in C57BL/6 mouse assessed as cFos cell count in brain at 3 mg/kg for 1 hr by immunohistochemistry (reference value: 470)

Row | Compound | Activity [1] | Activity [2] | Activity [3] | Activity [4] | Activity [5] | Activity [6] | Activity [7] | Activity [8] | Activity [9] | Activity [10] | Activity [11] | Activity [12] | Activity [13] | Activity [14] | Activity [15] | Activity [16] | Activity [17] | Activity [18] | Activity [19]
1 | C[C@H](NC(=O)Cn1nnc2ccccc2c1=O)c1ccc(OC(F)(F)F)cc1 [ZELATRIAZIN] | 1408 | 1376 | 1400 | 1928 | 1684 | 2365 | 787.7 | 1368 | 1381 | 2170 | 1486 | 986.3 | 1343 | – | – | – | – | – | –
2 | COc1cccc2nnn(CC(=O)N[C@@H](C)c3ccc(C)cc3)c(=O)c12 | – | – | – | – | – | – | – | – | – | – | – | – | – | 1628 | 2458 | 2243 | 865 | 2777 | 2023

From ChEMBL document CHEMBL4742386, “4-oxo-3,4-dihydro-1,2,3-benzotriazine derivatives as modulators of gpr139” (2019)
